US11590116B2 (THERAVANCE BIOPHARMA R&D IP, LLC, priority 2019, dated 2023)

Columns and labels:
[1] = test system: TGF-β-stimulated SMAD3 phosphorylation in BEAS-2B cells; assay: Cellular ALK5 potency assay, inhibition of TGF-β stimulated pSMAD3 formation in BEAS-2B cells; format: cell-based; conditions: Homo sapiens; inhibition of TGF-β stimulated pSMAD3 formation, BEAS-2B cells; read-out: BEAS2B pIC50 (converted)
Procedure, shortened: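 pSMAD3 was quantified by AlphaLISA in BEAS-2B lysates after 10 ng/mL TGF-β (final) for 30 min. Before stimulation, cells received compound for 1 h at 37° C in supplemented HBSS. Values are pIC50, relative to TGF-β-stimulated cells without compound.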

[2] = target: T1, recombinant human ALK5 (TGF-βR1) protein (Homo sapiens, UniProt P36897); assay: Biochemical ALK5 (TGF-βR1) assay to measure pKi (LANCE Ultra ULight kinase assay); conditions: apparent pKi from pIC50 by Cheng-Prusoff, read-out: ALK5 pKi (converted)
T1 construct: purchased Life Technologies PR9075A
T1 sequence (P36897 34-503): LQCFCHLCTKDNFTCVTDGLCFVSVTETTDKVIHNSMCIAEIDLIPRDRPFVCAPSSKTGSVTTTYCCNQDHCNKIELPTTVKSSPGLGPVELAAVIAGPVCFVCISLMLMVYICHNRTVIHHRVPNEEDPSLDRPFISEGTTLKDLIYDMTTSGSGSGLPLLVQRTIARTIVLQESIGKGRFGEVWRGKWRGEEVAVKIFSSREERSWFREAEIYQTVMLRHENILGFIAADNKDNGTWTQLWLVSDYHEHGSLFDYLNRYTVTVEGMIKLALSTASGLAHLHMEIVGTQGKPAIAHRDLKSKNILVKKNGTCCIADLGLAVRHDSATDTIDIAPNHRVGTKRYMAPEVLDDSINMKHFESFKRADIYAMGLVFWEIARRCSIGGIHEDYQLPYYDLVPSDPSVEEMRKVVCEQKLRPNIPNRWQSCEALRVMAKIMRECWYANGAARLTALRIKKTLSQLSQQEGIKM
Procedure, shortened: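 Compounds (10 μM to 25 pM) were preincubated 60 min at room temperature with enzyme, then reactions were started with ATP (125 μM stock, 5× final) and run 60 min at 37 °C. EDTA-containing Eu-anti-phospho-Topo IIα (Thr1342) antibody stopped the reaction; TR-FRET read at 665 nm. pIC50 from 4-parameter fit, converted to pKi via Cheng-Prusoff.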

SMILES	IC50 [1] [nM]	Ki [2] [nM]
Cc1cccc(-c2[nH]cnc2-c2ccc3ncc(NCCN4CCC[C@H](N)C4)cc3c2)n1 [Compound 623, N-[2-[(3S)-3-amino-1-piperidyl]ethyl]-6-[5-(6-methyl-2-pyridyl)-1H-imidazol-4-yl]quinolin-3-amine]	200 to 1260	0.0398 to 0.316
Cc1cccc(-c2[nH]cnc2-c2ccc3ncc(N4CC5(CC(N)C5)C4)cc3c2)n1 [Compound 624, 2-[6-[5-(6-methyl-2-pyridyl)-1H-imidazol-4-yl]-3-quinolyl]-2-azaspiro[3.3]heptan-6-amine]	25.1 to 158	0.0398 to 0.316
Cc1cccc(-c2n[nH]cc2-c2ccc3ncc(NC(=O)CN4CCN(C(C)C)CC4)cc3n2)n1 [Compound 625, 2-(4-isopropylpiperazin-1-yl)-N-[6-[3-(6-methyl-2-pyridyl)-1H-pyrazol-4-yl]-1,5-naphthyridin-3-yl]acetamide]	25.1 to 158	0.0398 to 0.316
Cc1cccc(-c2n[nH]cc2-c2ccc3ncc(N4CCC(N)C4)cc3n2)n1 (centres unmarked) [Compound 626, 1-[6-[3-(6-methyl-2-pyridyl)-1H-pyrazol-4-yl]-1,5-naphthyridin-3-yl]pyrrolidin-3-amine]	25.1 to 158	< 0.0316
Cc1cccc(-c2[nH]cnc2-c2ccc3ncc(NCCN4CCCC4(C)C)cc3n2)n1 [Compound 627, N-[2-(2,2-dimethylpyrrolidin-1-yl)ethyl]-6-[5-(6-methyl-2-pyridyl)-1H-imidazol-4-yl]-1,5-naphthyridin-3-amine]	25.1 to 158	0.0398 to 0.316
CNCCn1cc(-c2cnc3ccc(-c4c(-c5cccc(C)n5)nnn4C)cc3c2)cn1 [Compound 628, N-methyl-2-(4-(6-(1-methyl-4-(6-methylpyridin-2-yl)-1H-1,2,3-triazol-5-yl)quinolin-3-yl)-1H-pyrazol-1-yl)ethan-1-amine]	25.1 to 158	< 0.0316
Cc1cccc(-c2[nH]cnc2-c2ccc3ncc(C4=CCC(N(C)C)CC4)cc3c2)n1 (centres unmarked) [Compound 629, N,N-dimethyl-4-(6-(5-(6-methylpyridin-2-yl)-1H-imidazol-4-yl)quinolin-3-yl)cyclohex-3-en-1-amine]	25.1 to 158	< 0.0316
CNCCn1cc(-c2cnc3ccc(-c4c(-c5cccc(C)n5)nnn4CC(=O)O)nc3c2)cn1 [Compound 630, 2-[5-[7-[1-[2-(methylamino)ethyl]pyrazol-4-yl]-1,5-naphthyridin-2-yl]-4-(6-methyl-2-pyridyl)triazol-1-yl]acetic acid]	1580 to 10000	0.398 to 3.16
Cc1nc(-c2n[nH]cc2-c2ccc3ncc(-c4nnc5n4CCNC5)cc3n2)ccc1F [Compound 631, 2-[3-(5-fluoro-6-methyl-2-pyridyl)-1H-pyrazol-4-yl]-7-(5,6,7,8-tetrahydro-[1,2,4]triazolo[4,3-a]pyrazin-3-yl)-1,5-naphthyridine]	1580 to 10000	3.98 to 31.6
CNCCn1cc(-c2cnc3ccc(-c4c(-c5cccc(C)n5)nn5c4NCC5)cc3c2)cn1 [Compound 632, N-methyl-2-[4-[6-[6-(6-methyl-2-pyridyl)-2,3-dihydro-1H-imidazo[1,2-b]pyrazol-7-yl]-3-quinolyl]pyrazol-1-yl]ethanamine]	25.1 to 158	0.0398 to 0.316
Cc1cccc(-c2n[nH]cc2-c2ccc3ncc(CNCCN4CCOCC4)cc3n2)n1 [Compound 633, N-[[6-[3-(6-methyl-2-pyridyl)-1H-pyrazol-4-yl]-1,5-naphthyridin-3-yl]methyl]-2-morpholino-ethanamine]	25.1 to 158	0.398 to 3.16
CNCCn1cc(-c2cnc3ccc(-c4c[nH]nc4-c4ccc(F)c(C)n4)cc3c2)cn1 [Compound 634, 2-[4-[6-[3-(5-fluoro-6-methyl-2-pyridyl)-1H-pyrazol-4-yl]-3-quinolyl]pyrazol-1-yl]-N-methyl-ethanamine]	< 20	< 0.0316
Cc1cccc(-c2nc3n(c2-c2ccc4ncc(-c5cn[nH]c5)cc4c2)CCNC3)n1 [Compound 635, 6-(2-(6-methylpyridin-2-yl)-5,6,7,8-tetrahydroimidazo[1,2-a]pyrazin-3-yl)-3-(1H-pyrazol-4-yl)quinoline]	200 to 1260	0.0398 to 0.316
Cc1cccc(-c2[nH]cnc2-c2ccc3ncc(-c4cccc5c4CNC5)cc3c2)n1 [Compound 636, 3-isoindolin-4-yl-6-[5-(6-methyl-2-pyridyl)-1H-imidazol-4-yl]quinoline]	25.1 to 158	0.0398 to 0.316
Cc1cccc(-c2n[nH]cc2-c2ccc3ncc(N4CCN(CCNC(C)C)CC4)cc3n2)n1 [Compound 637, N-[2-[4-[6-[3-(6-methyl-2-pyridyl)-1H-pyrazol-4-yl]-1,5-naphthyridin-3-yl]piperazin-1-yl]ethyl]propan-2-amine]	25.1 to 158	0.0398 to 0.316
Cc1cccc(-c2n[nH]cc2-c2ccc3ncc(N4CCCN(C5CCNCC5)CC4)cc3n2)n1 [Compound 638, 2-[3-(6-methyl-2-pyridyl)-1H-pyrazol-4-yl]-7-[4-(4-piperidyl)-1,4-diazepan-1-yl]-1,5-naphthyridine]	1580 to 10000	0.0398 to 0.316
Cc1cccc(-c2n[nH]cc2-c2ccc3ncc(N4CCN(CCO)CC4)cc3n2)n1 [Compound 639, 2-[4-[6-[3-(6-methyl-2-pyridyl)-1H-pyrazol-4-yl]-1,5-naphthyridin-3-yl]piperazin-1-yl]ethanol]	25.1 to 158	< 0.0316
Cc1cccc(-c2[nH]cnc2-c2ccc3ncc(N4CCN(C)C(CC(=O)OCC5CNC5)C4)cc3c2)n1 (centres unmarked) [Compound 640, azetidin-3-ylmethyl 2-[1-methyl-4-[6-[5-(6-methyl-2-pyridyl)-1H-imidazol-4-yl]-3-quinolyl]piperazin-2-yl]acetate]	1580 to 10000	0.0398 to 0.316
Cc1cccc(-c2n[nH]cc2-c2ccc3ncc(-c4ncc5n4CCN5)cc3n2)n1 [Compound 641, 7-(2,3-dihydro-1H-imidazo[1,5-a]imidazol-5-yl)-2-[3-(6-methyl-2-pyridyl)-1H-pyrazol-4-yl]-1,5-naphthyridine]	25.1 to 158	0.0398 to 0.316
Cc1cccc(-c2n[nH]cc2-c2ccc3ncc(-c4nc5c([nH]4)CCNCC5)cc3n2)n1 [Compound 642, 2-[6-[3-(6-methyl-2-pyridyl)-1H-pyrazol-4-yl]-1,5-naphthyridin-3-yl]-1,4,5,6,7,8-hexahydroimidazo[4,5-d]azepine]	200 to 1260	0.0398 to 0.316
CCNC(=O)C1CCN(CCNc2cnc3ccc(-c4nc[nH]c4-c4cccc(C)n4)cc3c2)CC1 [Compound 643, N-ethyl-1-[2-[[6-[5-(6-methyl-2-pyridyl)-1H-imidazol-4-yl]-3-quinolyl]amino]ethyl]piperidine-4-carboxamide]	25.1 to 158	0.398 to 3.16
Cc1cccc(-c2[nH]cnc2-c2ccc3ncc(-c4cn[nH]c4)cc3n2)n1 [Compound 644, 2-(5-(6-methylpyridin-2-yl)-1H-imidazol-4-yl)-7-(1H-pyrazol-4-yl)-1,5-naphthyridine]	< 20	< 0.0316
Cc1cccc(-c2[nH]cnc2-c2ccc3ncc(-c4cn5c(n4)CNCC5)cc3c2)n1 [Compound 645, 6-[5-(6-methyl-2-pyridyl)-1H-imidazol-4-yl]-3-(5,6,7,8-tetrahydroimidazo[1,2-a]pyrazin-2-yl)quinoline]	200 to 1260	0.0398 to 0.316
Cc1cccc(-c2nc3ccccn3c2-c2ccc3ncc(N4CCCNCC4)cc3n2)n1 [Compound 646, 7-(1,4-diazepan-1-yl)-2-[2-(6-methyl-2-pyridyl)imidazo[1,2-a]pyridin-3-yl]-1,5-naphthyridine]	25.1 to 158	0.0398 to 0.316
Cc1cccc(-c2[nH]cnc2-c2ccc3ncc(N4CC(N(C)C)C4)cc3c2)n1 [Compound 648, N,N-dimethyl-1-[6-[5-(6-methyl-2-pyridyl)-1H-imidazol-4-yl]-3-quinolyl]azetidin-3-amine]	25.1 to 158	0.0398 to 0.316
Cc1cccc(-c2[nH]cnc2-c2ccc3ncc(NC(=O)C4CCNCC4)cc3c2)n1 [Compound 649, N-[6-[5-(6-methyl-2-pyridyl)-1H-imidazol-4-yl]-3-quinolyl]piperidine-4-carboxamide]	200 to 1260	0.0398 to 0.316
Cc1cccc(-c2[nH]cnc2-c2ccc3ncc(-c4ccc(C(=O)OCC5CNC5)cc4)cc3c2)n1 [Compound 650, azetidin-3-ylmethyl 4-[6-[5-(6-methyl-2-pyridyl)-1H-imidazol-4-yl]-3-quinolyl]benzoate]	25.1 to 158	0.0398 to 0.316
Cc1nc(-c2n[nH]cc2-c2ccc3ncc(-c4cc5n(n4)CCCN5)cc3n2)ccc1F [Compound 651, 2-[3-(5-fluoro-6-methyl-2-pyridyl)-1H-pyrazol-4-yl]-7-(4,5,6,7-tetrahydropyrazolo[1,5-a]pyrimidin-2-yl)-1,5-naphthyridine]	< 20	< 0.0316
